Values of other authors in patent US6534088B2, “Fibrate-statin combinations with reduced fed-fasted effects” (SkyePharma Canada Inc., priority 2001, dated 2003).
Values belong to the compound of their own block, whether it stands above or below them.

Legend:
[1] = not given; remark: listed apart in the source

Structure (SMILES): CC[C@H](C)C(=O)O[C@H]1C[C@@H](C)C=C2C=C[C@H](C)[C@H](CC[C@@H]3C[C@@H](O)CC(=O)O3)[C@H]21 [Lovastatin]
solubility in water: insoluble in water

Structure (SMILES): CC[C@H](C)C(=O)O[C@H]1C[C@H](O)C=C2C=C[C@H](C)[C@H](CC[C@@H](O)C[C@@H](O)CC(=O)O)[C@H]21 [Pravastatin]
solubility in methanol and water: > 300 mg/mL
partition coefficient (octanol/water) (pH of 7.0): 0.59

Structure (SMILES): CC(C)(Oc1ccc(C(=O)c2ccc(Cl)cc2)cc1)C(=O)O [fenofibric acid]
elimination half-life ([1]; metabolite in blood or plasma): approximately twenty

Further lines, results first:

solubility in water: soluble in water
effect of food on absorption ([1]; oral administration): not sensitive to a food effect
Structure (SMILES): COCc1c(C(C)C)nc(C(C)C)c(/C=C/[C@@H](O)C[C@@H](O)CC(=O)O)c1-c1ccc(F)cc1 [Cerivastatin]

solubility in water: soluble in water
time to peak concentrations ([1]; oral administration): less than 1 hour
Structure (SMILES): CC(C)n1c(/C=C/C(O)CC(O)CC(=O)O)c(-c2ccc(F)cc2)c2ccccc21 (centres unmarked) [Fluvastatin]
